Measurements as given in PubChem BioAssay AID1259407 (Chemical Carcinogenesis Research Information System (CCRIS), 2018).
Activity calls are given as the source filed them. No rule for the calls is given here.

System: CCRIS mutagenicity, Ames/micronucleus/aberration tests
Assay: CCRIS mutagenicity studies

With `C=O` the mutagenic call (End Point: IN VITRO CHROMOSOMAL ABERRATIONS, Test System: SYRIAN HAMSTER EMBRYO (SHE) CELLS, Metabolic Activation: NONE) was “active; positive (structural changes)”, the mutagenic call (End Point: In vitro chromosomal aberrations, Test System: Chinese hamster ovary (CHO) cells, Metabolic Activation: None) was “active; positive” and the mutagenic call (End Point: In vitro chromosomal aberrations, Test System: Chinese hamster ovary (CHO) cells, Metabolic Activation: S-9) was “active; positive”. The mutagenic call (End Point: In vivo micronucleus, Test System: Peripheral blood erythrocytes, Species: Rat, Strain/Sex: F344/DuCrl / Male, Route: Inhalation) was “inactive; negative”, the mutagenic call (Test System: AMES SALMONELLA TYPHIMURIUM, Strain/Indicator: TA97, Metabolic Activation: NONE, Method: PREINCUBATION) was “inactive; negative” and the mutagenic call (Test System: AMES SALMONELLA TYPHIMURIUM, Strain/Indicator: TA97, Metabolic Activation: NONE, Method: STANDARD PLATE) was “active; positive”. For the same compound, the mutagenic call (Test System: AMES SALMONELLA TYPHIMURIUM, Strain/Indicator: TA98, Metabolic Activation: RAT, LIVER, S-9, AROCLOR 1254, Method: PREINCUBATION) was “active; positive”, the mutagenic call (Test System: AMES SALMONELLA TYPHIMURIUM, Strain/Indicator: TA98, Metabolic Activation: RAT, LIVER, S-9, AROCLOR 1254, Method: STANDARD PLATE) was “active; positive” and the mutagenic call (Test System: AMES SALMONELLA TYPHIMURIUM, Strain/Indicator: TA100, Metabolic Activation: MOUSE LIVER S-9, AROCLOR 1254, Method: PREINCUBATION) was “active; positive”. The mutagenic call (Test System: AMES SALMONELLA TYPHIMURIUM, Strain/Indicator: TA100, Metabolic Activation: NONE, Method: SUSPENSION) was “active; positive”, the mutagenic call (Test System: AMES SALMONELLA TYPHIMURIUM, Strain/Indicator: TA100, Metabolic Activation: RAT LIVER S-9, AROCLOR 1254, Method: PREINCUBATION) was “active; positive” and the mutagenic call (Test System: AMES SALMONELLA TYPHIMURIUM, Strain/Indicator: TA100, Metabolic Activation: RAT, LIVER, S-9, AROCLOR 1254, Method: STANDARD PLATE) was “active; positive”. For the same compound, the mutagenic call (Test System: AMES SALMONELLA TYPHIMURIUM, Strain/Indicator: TA100, Metabolic Activation: RAT, LIVER, S-9, AROCLOR 1254, Method: SUSPENSION) was “active; positive”, the mutagenic call (Test System: AMES SALMONELLA TYPHIMURIUM, Strain/Indicator: TA100, Metabolic Activation: RAT, LIVER, S-9, AROCLOR, Method: STANDARD PLATE) was “active; positive” and the mutagenic call (Test System: AMES SALMONELLA TYPHIMURIUM, Strain/Indicator: TA102, Metabolic Activation: NONE, Method: FLUCTUATION TEST) was “active; positive”. For the same compound, the mutagenic call (Test System: AMES SALMONELLA TYPHIMURIUM, Strain/Indicator: TA102, Metabolic Activation: NONE, Method: PREINCUBATION) was “active; positive”, the mutagenic call (Test System: AMES SALMONELLA TYPHIMURIUM, Strain/Indicator: TA104, Metabolic Activation: MOUSE LIVER S-9, AROCLOR 1254, Method: PREINCUBATION) was “active; positive” and the mutagenic call (Test System: AMES SALMONELLA TYPHIMURIUM, Strain/Indicator: TA104, Metabolic Activation: NONE, Method: PREINCUBATION) was “active; positive”. The mutagenic call (Test System: AMES SALMONELLA TYPHIMURIUM, Strain/Indicator: TA104, Metabolic Activation: RAT LIVER S-9, AROCLOR 1254, Method: PREINCUBATION) was “active; positive”, the mutagenic call (Test System: AMES SALMONELLA TYPHIMURIUM, Strain/Indicator: TA104, Metabolic Activation: RAT, LIVER, S-9, AROCLOR 1254, Method: PREINCUBATION) was “active; positive” and the mutagenic call (Test System: AMES SALMONELLA TYPHIMURIUM, Strain/Indicator: TA1535, Metabolic Activation: NONE, Method: PREINCUBATION) was “inactive; negative”. The mutagenic call (Test System: AMES SALMONELLA TYPHIMURIUM, Strain/Indicator: TA1535, Metabolic Activation: NONE, Method: STANDARD PLATE) was “inactive; negative”, the mutagenic call (Test System: AMES SALMONELLA TYPHIMURIUM, Strain/Indicator: TA1535, Metabolic Activation: RAT, LIVER, S-9, AROCLOR 1254, Method: PREINCUBATION) was “inactive; negative” and the mutagenic call (Test System: AMES SALMONELLA TYPHIMURIUM, Strain/Indicator: TA1535, Metabolic Activation: RAT, LIVER, S-9, AROCLOR 1254, Method: STANDARD PLATE) was “inactive; negative”. The mutagenic call (Test System: AMES SALMONELLA TYPHIMURIUM, Strain/Indicator: TA1537, Metabolic Activation: NONE, Method: PREINCUBATION) was “inactive; negative”, the mutagenic call (Test System: AMES SALMONELLA TYPHIMURIUM, Strain/Indicator: TA1537, Metabolic Activation: RAT, LIVER, S-9, AROCLOR 1254, Method: PREINCUBATION) was “inactive; negative” and the mutagenic call (Test System: AMES SALMONELLA TYPHIMURIUM, Strain/Indicator: TA1537, Metabolic Activation: RAT, LIVER, S-9, AROCLOR 1254, Method: STANDARD PLATE) was “active; positive”. For the same compound, the mutagenic call (Test System: AMES SALMONELLA TYPHIMURIUM, Strain/Indicator: TA1538, Metabolic Activation: NONE, Method: PREINCUBATION) was “inactive; negative”, the mutagenic call (Test System: AMES SALMONELLA TYPHIMURIUM, Strain/Indicator: TA1538, Metabolic Activation: NONE, Method: STANDARD PLATE) was “inactive; negative” and the mutagenic call (Test System: AMES SALMONELLA TYPHIMURIUM, Strain/Indicator: TA2638, Metabolic Activation: NONE, Method: STANDARD PLATE) was “active; positive”. For the same compound, the mutagenic call (Test System: AMES SALMONELLA TYPHIMURIUM, Strain/Indicator: TA2638A, Metabolic Activation: NONE, Method: PREINCUBATION) was “active; positive”, the mutagenic call (Test System: AMES SALMONELLA TYPHIMURIUM, Strain/Indicator: UTH8413, Metabolic Activation: NONE, Method: STANDARD PLATE) was “inactive; negative” and the mutagenic call (Test System: AMES SALMONELLA TYPHIMURIUM, Strain/Indicator: UTH8413, Metabolic Activation: RAT, LIVER, S-9, AROCLOR, Method: STANDARD PLATE) was “inactive; negative”. For the same compound, the mutagenic call (Test System: AMES SALMONELLA TYPHIMURIUM, Strain/Indicator: UTH8414, Metabolic Activation: NONE, Method: STANDARD PLATE) was “inactive; negative”, the mutagenic call (Test System: AMES SALMONELLA TYPHIMURIUM, Strain/Indicator: UTH8414, Metabolic Activation: RAT, LIVER, S-9, AROCLOR, Method: STANDARD PLATE) was “inactive; negative” and the mutagenic call (Test System: CHINESE HAMSTER OVARY, Strain/Indicator: CHO-K1 (HPRT)/6-THIOGUANINE, Metabolic Activation: NONE, Method: SUSPENSION) was “active; positive”. The mutagenic call (Test System: CHINESE HAMSTER OVARY, Strain/Indicator: CHO-K1 (HPRT)/6-THIOGUANINE, Metabolic Activation: NONE, Method: SUSPENSION/PLATE) was “inactive; negative”, the mutagenic call (Test System: CHINESE HAMSTER V-79, Strain/Indicator: V-79/6-THIOGUANINE, Metabolic Activation: NONE) was “active; positive” and the mutagenic call (Test System: E. COLI, Strain/Indicator: 016 POLA, Metabolic Activation: NONE, Method: PREINCUBATION) was “inactive; negative”. For the same compound, the mutagenic call (Test System: E. COLI, Strain/Indicator: H/R30R, Metabolic Activation: NONE, Method: PREINCUBATION) was “active; positive”, the mutagenic call (Test System: E. COLI, Strain/Indicator: HS30R UVRA, Metabolic Activation: NONE, Method: PREINCUBATION) was “active; positive” and the mutagenic call (Test System: E. COLI, Strain/Indicator: K12(AB1157) (WILD TYPE), Metabolic Activation: NONE, Method: SUSPENSION/PLATE) was “active; positive”. The mutagenic call (Test System: E. COLI, Strain/Indicator: K12(AB1886) (UVRA), Metabolic Activation: NONE, Method: SUSPENSION/PLATE) was “inactive; negative”, the mutagenic call (Test System: E. COLI, Strain/Indicator: K12(AB2480) (RECA/UVRA), Metabolic Activation: NONE, Method: SUSPENSION/PLATE) was “inactive; negative” and the mutagenic call (Test System: E. COLI, Strain/Indicator: NG30 RECA, Metabolic Activation: NONE, Method: PREINCUBATION) was “inactive; negative”. The mutagenic call (Test System: E. COLI, Strain/Indicator: WP2 (PKM101), Metabolic Activation: NONE, Method: PREINCUBATION) was “active; positive”, the mutagenic call (Test System: E. COLI, Strain/Indicator: WP2, Metabolic Activation: NONE, Method: PREINCUBATION) was “active; positive” and the mutagenic call (Test System: E. COLI, Strain/Indicator: WP2 UVRA (PKM101), Metabolic Activation: NONE, Method: PREINCUBATION) was “active; positive”. For the same compound, the mutagenic call (Test System: E. COLI, Strain/Indicator: WP2 UVRA (PKM101), Metabolic Activation: NONE, Method: STANDARD PLATE) was “active; positive”, the mutagenic call (Test System: E. COLI, Strain/Indicator: WP2 UVRA, Metabolic Activation: NONE, Method: PREINCUBATION) was “active; positive” and the mutagenic call (Test System: MOUSE LYMPHOMA, Strain/Indicator: L5178Y (TK+/TK-), Metabolic Activation: NONE, Method: SUSPENSION/PLATE) was “active; positive”.

For `CC(=O)OCc1ccc(N=Nc2ccc(N(C)C)cc2)cc1`, the mutagenic call (Test System: AMES SALMONELLA TYPHIMURIUM, Strain/Indicator: TA98, Metabolic Activation: RAT, LIVER, S-9, POLYCHLORINATED BIPHENYLS, Method: PREINCUBATION) was “active; positive” and the mutagenic call (Test System: AMES SALMONELLA TYPHIMURIUM, Strain/Indicator: TA100, Metabolic Activation: RAT, LIVER, S-9, POLYCHLORINATED BIPHENYLS, Method: PREINCUBATION) was “active; positive”.

`Cc1ccc2cc(C)c3c4c(ccc3c2c1)[C@H](O)[C@@H](O)[C@H]1O[C@@H]41` was tested, and the mutagenic call (Test System: AMES SALMONELLA TYPHIMURIUM, Strain/Indicator: TA100, Metabolic Activation: NONE, Method: STANDARD PLATE) was “active; positive”.

For `OCc1cc2ccccc2c2ccc3ccccc3c12`, the mutagenic call (Test System: AMES SALMONELLA TYPHIMURIUM, Strain/Indicator: TA98, Metabolic Activation: RAT, LIVER, CYTOSOL AND PAPS GENERATING SYSTEM, Method: PREINCUBATION) was “active; positive” and the mutagenic call (Test System: AMES SALMONELLA TYPHIMURIUM, Strain/Indicator: TA98, Metabolic Activation: RAT, LIVER, S-9 AND NADPH GENERATING SYSTEM, Method: PREINCUBATION) was “inactive; negative”.

With `Cc1cn(/C=C/C=O)c(=O)[nH]c1=O` the mutagenic call (Test System: AMES SALMONELLA TYPHIMURIUM, Strain/Indicator: HISD3052, Metabolic Activation: NONE, Method: STANDARD PLATE) was “active; positive”.
